This note sets out measurements from US8008298B2, “Pyrrolopyrazine kinase inhibitors” (Roche Palo Alto, priority 2008, dated 2011).

Holding throughout (format): biochemical
The target in test [1] is T1, recombinant human SYK360-635 (Homo sapiens, UniProt P43405).
T1 construct: truncated construct of Spleen Tyrosine Kinase aa 360-635; made in house
The experiment in a line: SYK kinase assay, 33P ATP incorporation into biotinylated peptide. The following applies: 0.5 nM SYK aa 360-635, ATP 20 μM, peptide 5 μM, 15 min at 30° C.; read-out: IC50 h-syk (360-635)-baculovirus-c. As to the method: SYK Assay Information Determination of IC50 of Spleen Tyrosine Kinase (SYK) Inhibition:
SYK kinase assay is a standard kinase assay adapted to a 96 well plate format. This assay is performed in 96-well format for IC50 determination with 8 samples which represented 10 half log dilutions and a 40 μL reaction volume. The assay measures the incorporation of radiolabeled ^33P γATP into an N-terminally biotinylated peptide substrate, derived from naturally occurring phosphoacceptor consensus sequence (Biotin-11aa DY*E). Phosphorylated products were detected upon termination of reactions with EDTA and the addition of Streptavidin coated beads. […]
The unbound radionucleotides were washed under vacuum with 3×250 μL 2M NaCl; 2×250 μL 2M NaCl+1% phosphoric acid; 1×250 μL H2O. After the last wash membrane/plates were transferred to an adaptor plate, heat dried for 15 min at 60° C., and 50 μL scintillation cocktail was added to each well and 4 h later the amount of radioactivity was counted in a top counter.
The percent inhibition was calculated based on the uninhibited enzyme rate: % Inhibition=100/(1+(IC50/Inhibitor cone)^n) • The IC50 was calculated using a non-linear curve fit with XLfit software (ID Business Solution Ltd., Guilford, Surrey, UK).

The target of test [2] is JAK3: Recombinant human kinase domain (Homo sapiens, UniProt P52333). The experiment in a line: JAK3 kinase inhibition, radioactive end-point assay. The note with it: 0.5 nM or 0.2 nM JAK3, ATP 1.5 uM, peptide 50 uM, 20 minutes, room temperature; read-out: IC50 h-jak3-sf21-c. From the text:
(§1) Determination of IC50 of Janus Kinase (JAK) Inhibition: […]

Test [3] addresses JAK2: Recombinant human kinase domain (Homo sapiens, UniProt O60674). The experiment in a line: JAK2 kinase inhibition, radioactive end-point assay. The following applies: 1 nM JAK2, ATP 1.5 uM, peptide 50 uM, 20 minutes, room temperature; read-out: IC50 h-jak2-sf21-c.
Text: as §1

Test [4] has as its target JAK1: Recombinant human kinase domain (Homo sapiens, UniProt P23458). The experiment in a line: JAK1 kinase inhibition, radioactive end-point assay. The note with it: 5 nM JAK1, ATP 10 uM, peptide 50 uM, 40 minutes, room temperature; read-out: IC50 h-jak1-sf21-c.
Text: as §1

The structures appear in SMILES notation.

Sequence of JAK3: Recombinant human kinase domain (P52333 822-1111 limits assumed): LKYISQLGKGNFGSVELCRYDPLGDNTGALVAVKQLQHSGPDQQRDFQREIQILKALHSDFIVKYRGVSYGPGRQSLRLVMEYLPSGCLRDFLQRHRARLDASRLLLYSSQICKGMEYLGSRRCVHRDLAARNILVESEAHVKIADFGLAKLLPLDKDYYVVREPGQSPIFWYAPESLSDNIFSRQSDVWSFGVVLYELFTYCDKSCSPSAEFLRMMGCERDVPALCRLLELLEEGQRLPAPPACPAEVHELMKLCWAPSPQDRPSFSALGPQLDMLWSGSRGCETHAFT
Sequence of JAK2: Recombinant human kinase domain (O60674 849-1124 limits assumed): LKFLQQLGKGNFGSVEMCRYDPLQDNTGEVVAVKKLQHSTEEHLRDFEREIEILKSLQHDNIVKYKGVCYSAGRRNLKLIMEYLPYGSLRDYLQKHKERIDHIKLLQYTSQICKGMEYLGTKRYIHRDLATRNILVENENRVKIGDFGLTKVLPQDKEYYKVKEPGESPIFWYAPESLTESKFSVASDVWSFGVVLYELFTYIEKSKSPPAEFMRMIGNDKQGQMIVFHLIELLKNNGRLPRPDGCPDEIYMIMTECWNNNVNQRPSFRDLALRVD
Sequence of JAK1: Recombinant human kinase domain (P23458 875-1153 limits assumed): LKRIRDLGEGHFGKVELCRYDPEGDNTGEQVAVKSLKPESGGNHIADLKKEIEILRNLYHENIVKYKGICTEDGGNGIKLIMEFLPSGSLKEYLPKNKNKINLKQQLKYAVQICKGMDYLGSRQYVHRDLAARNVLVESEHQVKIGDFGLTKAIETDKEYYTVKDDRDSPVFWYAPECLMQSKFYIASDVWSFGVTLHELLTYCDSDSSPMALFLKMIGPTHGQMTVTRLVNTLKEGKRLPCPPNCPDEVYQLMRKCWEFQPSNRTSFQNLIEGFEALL

For orientation: IC50 means the concentration that gives 50% inhibition. `COc1cc(-c2cnc3[nH]cc(C(=O)C(C)(C)C)c3n2)cc(OC)c1OC` [Example I-12, 2,2-Dimethyl-1-[2-(3,4,5-trimethoxy-phenyl)-5H-pyrrolo[2,3-b]pyrazin-7-yl]-propan-1-one]: the IC50 in test [1] is 317 nM; in test [2] it was 56.1 nM; in test [3], 455 nM.
As to `CC(C)(C)C(=O)c1c[nH]c2ncc(-c3cccc(N4CCCC4)c3)nc12` [Example I-64, 2,2-Dimethyl-1-[2-(3-pyrrolidin-1-yl-phenyl)-5H-pyrrolo[2,3-b]pyrazin-7-yl]-propan-1-one], the IC50 in test [4] was determined as 2100 nM; in test [1], 1310 nM; in test [2], 24.1 nM; in test [3], 3440 nM.
For the compound `COc1cc(-c2cnc3[nH]cc(C(=O)NCC(C)OC)c3n2)cc(OC)c1OC` (centres unmarked) [Example I-82, 2-(3,4,5-Trimethoxy-phenyl)-5H-pyrrolo[2,3-b]pyrazine-7-carboxylic acid (2-methoxy-propyl)-amide], the IC50 in test [4] came to 90 nM; in test [1] it was 36 nM; in test [2] it was 4.6 nM; in test [3], 10.8 nM.
With `COc1cc(-c2cnc3[nH]cc(C(=O)C4(C)CCCCC4)c3n2)cc(OC)c1OC` [Example I-117, (1-Methyl-cyclohexyl)-[2-(3,4,5-trimethoxy-phenyl)-5H-pyrrolo[2,3-b]pyrazin-7-yl]-methanone], the IC50 was 162 nM in test [1], 6.8 nM in test [2] and 107 nM in test [3].
